According to patent US9693556B2, “Herbicidal pyridazinone derivatives” (SYNGENTA LIMITED, priority 2011, dated 2017):

Tests used:
Type in all cases: in vivo
[1] = test system: Alopecurus myosuroides (ALOMY); assay: Pre-emergence herbicidal glasshouse test on Alopecurus myosuroides; details: pre-emergence; 1000 g/h; evaluated after 13 days
Method in brief: (§1)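 Read-out: percentage herbicidal damage 13 days after spraying, given on a five-point scale (5=80-100%, 4=60-79%, 3=40-59%, 2=20-39%, 1=0-19%). Pots of standard soil; application at 1000 g/h, one day post-sowing for pre-emergence, eight days for post-emergence.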

Setaria faberi (SETFA) [2] = assay: Pre-emergence herbicidal glasshouse test on Setaria faberi; details: pre-emergence; 1000 g/h; evaluated after 13 days
Method in brief: as §1

[3] = test system: Echinochloa crus-galli (ECHCG); assay: Pre-emergence herbicidal glasshouse test on Echinochloa crus-galli; details: pre-emergence; 1000 g/h; evaluated after 13 days
Method in brief: as §1

Solanum nigrum (SOLNI) [4] = assay: Pre-emergence herbicidal glasshouse test on Solanum nigrum; details: pre-emergence; 1000 g/h; evaluated after 13 days
Method in brief: as §1

[5] = test system: Amaranthus retoflexus (AMARE); assay: Pre-emergence herbicidal glasshouse test on Amaranthus retoflexus; details: pre-emergence; 1000 g/h; evaluated after 13 days
Method in brief: as §1

[6] = test system: Ipomoea hederacea (IPOHE); assay: Pre-emergence herbicidal glasshouse test on Ipomoea hederacea; details: pre-emergence; 1000 g/h; evaluated after 13 days
Method in brief: as §1

[7] = test system: Alopecurus myosuroides (ALOMY); assay: Post-emergence herbicidal glasshouse test on Alopecurus myosuroides; details: post-emergence; 1000 g/h; evaluated after 13 days
Method in brief: as §1

Setaria faberi (SETFA) [8] = assay: Post-emergence herbicidal glasshouse test on Setaria faberi; details: post-emergence; 1000 g/h; evaluated after 13 days
Method in brief: as §1

[9] = test system: Echinochloa crus-galli (ECHCG); assay: Post-emergence herbicidal glasshouse test on Echinochloa crus-galli; details: post-emergence; 1000 g/h; evaluated after 13 days
Method in brief: as §1

Solanum nigrum (SOLNI) [10] = assay: Post-emergence herbicidal glasshouse test on Solanum nigrum; details: post-emergence; 1000 g/h; evaluated after 13 days
Method in brief: as §1

[11] = test system: Amaranthus retoflexus (AMARE); assay: Post-emergence herbicidal glasshouse test on Amaranthus retoflexus; details: post-emergence; 1000 g/h; evaluated after 13 days
Method in brief: as §1

[12] = test system: Ipomoea hederacea (IPOHE); assay: Post-emergence herbicidal glasshouse test on Ipomoea hederacea; details: post-emergence; 1000 g/h; evaluated after 13 days
Method in brief: as §1

C=CCn1c(C(F)(F)F)ccc(-c2cnn(C)c(=O)c2O)c1=O [Compound 9.011]
PRE Application ALOMY herbicidal damage (five point scale) [1]: 2 (2=20-39% damage)
PRE Application SETFA herbicidal damage (five point scale) (Setaria faberi (SETFA) [2]): 3 (3=40-59% damage)
PRE Application ECHCG herbicidal damage (five point scale) [3]: 5 (5=80-100% damage)
PRE Application SOLNI herbicidal damage (five point scale) (Solanum nigrum (SOLNI) [4]): 1 (1=0-19% damage)
PRE Application AMARE herbicidal damage (five point scale) [5]: 4 (4=60-79% damage)
PRE Application IPOHE herbicidal damage (five point scale) [6]: 1 (1=0-19% damage)
POST Application ALOMY herbicidal damage (five point scale) [7]: 4 (4=60-79% damage)
POST Application SETFA herbicidal damage (five point scale) (Setaria faberi (SETFA) [8]): 5 (5=80-100% damage)
POST Application ECHCG herbicidal damage (five point scale) [9]: 5 (5=80-100% damage)
POST Application SOLNI herbicidal damage (five point scale) (Solanum nigrum (SOLNI) [10]): 5 (5=80-100% damage)
POST Application AMARE herbicidal damage (five point scale) [11]: 5 (5=80-100% damage)
POST Application IPOHE herbicidal damage (five point scale) [12]: 4 (4=60-79% damage)

COc1nc(C(F)(F)F)ccc1-c1cnn(C)c(=O)c1O [Compound 4.005]
PRE Application ALOMY herbicidal damage (five point scale) [1]: 1 (1=0-19% damage)
PRE Application SETFA herbicidal damage (five point scale) (Setaria faberi (SETFA) [2]): 1 (1=0-19% damage)
PRE Application ECHCG herbicidal damage (five point scale) [3]: 1 (1=0-19% damage)
PRE Application SOLNI herbicidal damage (five point scale) (Solanum nigrum (SOLNI) [4]): 1 (1=0-19% damage)
PRE Application AMARE herbicidal damage (five point scale) [5]: 5 (5=80-100% damage)
PRE Application IPOHE herbicidal damage (five point scale) [6]: 1 (1=0-19% damage)
POST Application ALOMY herbicidal damage (five point scale) [7]: 1 (1=0-19% damage)
POST Application SETFA herbicidal damage (five point scale) (Setaria faberi (SETFA) [8]): 1 (1=0-19% damage)
POST Application ECHCG herbicidal damage (five point scale) [9]: 1 (1=0-19% damage)
POST Application SOLNI herbicidal damage (five point scale) (Solanum nigrum (SOLNI) [10]): 3 (3=40-59% damage)
POST Application AMARE herbicidal damage (five point scale) [11]: 5 (5=80-100% damage)
POST Application IPOHE herbicidal damage (five point scale) [12]: 2 (2=20-39% damage)

Cn1ncc(-c2cnc(C(F)(F)F)nc2N2CCOCC2)c(O)c1=O [Compound 8.001, 4-hydroxy-2-methyl-5-[4-morpholino-2-(trifluoromethyl)pyrimidin-5-yl]pyridazin-3-one]
PRE Application ALOMY herbicidal damage (five point scale) [1]: 1 (1=0-19% damage)
PRE Application SETFA herbicidal damage (five point scale) (Setaria faberi (SETFA) [2]): 2 (2=20-39% damage)
PRE Application ECHCG herbicidal damage (five point scale) [3]: 5 (5=80-100% damage)
PRE Application SOLNI herbicidal damage (five point scale) (Solanum nigrum (SOLNI) [4]): 5 (5=80-100% damage)
PRE Application AMARE herbicidal damage (five point scale) [5]: 5 (5=80-100% damage)
PRE Application IPOHE herbicidal damage (five point scale) [6]: 3 (3=40-59% damage)
POST Application ALOMY herbicidal damage (five point scale) [7]: 1 (1=0-19% damage)
POST Application SETFA herbicidal damage (five point scale) (Setaria faberi (SETFA) [8]): 2 (2=20-39% damage)
POST Application ECHCG herbicidal damage (five point scale) [9]: 5 (5=80-100% damage)
POST Application SOLNI herbicidal damage (five point scale) (Solanum nigrum (SOLNI) [10]): 5 (5=80-100% damage)
POST Application AMARE herbicidal damage (five point scale) [11]: 5 (5=80-100% damage)
POST Application IPOHE herbicidal damage (five point scale) [12]: 5 (5=80-100% damage)

COCn1ncc(-c2ccccc2[S+](C)[O-])c(O)c1=O (stereo not drawn) [Compound 1.145]
PRE Application ALOMY herbicidal damage (five point scale) [1]: 1 (1=0-19% damage)
PRE Application SETFA herbicidal damage (five point scale) (Setaria faberi (SETFA) [2]): 2 (2=20-39% damage)
PRE Application ECHCG herbicidal damage (five point scale) [3]: 4 (4=60-79% damage)
PRE Application SOLNI herbicidal damage (five point scale) (Solanum nigrum (SOLNI) [4]): 2 (2=20-39% damage)
PRE Application AMARE herbicidal damage (five point scale) [5]: 5 (5=80-100% damage)
PRE Application IPOHE herbicidal damage (five point scale) [6]: 1 (1=0-19% damage)
POST Application ALOMY herbicidal damage (five point scale) [7]: 3 (3=40-59% damage)
POST Application SETFA herbicidal damage (five point scale) (Setaria faberi (SETFA) [8]): 5 (5=80-100% damage)
POST Application ECHCG herbicidal damage (five point scale) [9]: 5 (5=80-100% damage)
POST Application SOLNI herbicidal damage (five point scale) (Solanum nigrum (SOLNI) [10]): 5 (5=80-100% damage)
POST Application AMARE herbicidal damage (five point scale) [11]: 5 (5=80-100% damage)
POST Application IPOHE herbicidal damage (five point scale) [12]: 5 (5=80-100% damage)
